Assay results taken from patent publication US8288371B2, “Ortho pyrrolidine, benzyl-substituted heterocycle CCR1 antagonists for autoimmune diseases and inflammation” (Pharmacopeia, LLC, priority 2007, dated 2012).

target: T1, human CCR1 (Homo sapiens, UniProt P32246); assay: CCR1 binding protocol (SPA, [125I]-MIP-1α displacement); conditions: cell membrane expressing human CCR1, 0.1 nM [125I]-MIP-1α, 4 hours at ambient temperature; read-out: Relative potency (IC50)
T1 sequence (P32246 1-355): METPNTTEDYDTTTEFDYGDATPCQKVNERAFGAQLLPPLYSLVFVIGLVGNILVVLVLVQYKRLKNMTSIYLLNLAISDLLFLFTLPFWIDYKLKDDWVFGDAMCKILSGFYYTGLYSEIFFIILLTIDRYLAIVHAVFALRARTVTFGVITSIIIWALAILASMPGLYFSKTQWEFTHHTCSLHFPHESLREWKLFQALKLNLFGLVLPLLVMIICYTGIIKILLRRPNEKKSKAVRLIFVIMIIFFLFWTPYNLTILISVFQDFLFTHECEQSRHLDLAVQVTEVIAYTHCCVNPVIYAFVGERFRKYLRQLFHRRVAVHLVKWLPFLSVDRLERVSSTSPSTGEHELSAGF
Summary of the method: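 Human CCR1 membranes (0.5 μg/well) on SPA beads were incubated with compound and 0.1 nM [125I]-MIP-1α (final) for 4 h at ambient temperature. Buffer was Tris pH 7.4 with NaCl, KCl, MnCl and 0.1% BSA. IC50 came from ½-log compound dilutions (10 mM top DMSO stock) by displacement of bound radioligand.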

SMILES	IC50 [nM]
Cc1nnc([C@H]2CCCN2C(=O)NC2(c3ccc(Cl)cc3)CC2)n1Cc1ccc(Cl)cc1 [Compound 271]	< 50
Cc1nnc([C@H]2CCCN2C(=O)Nc2c(F)cc(F)cc2F)n1Cc1ccc(Cl)cc1 [Compound 473]	< 50
Cc1nnc([C@H]2CCCN2C(=O)Nc2cccc(-c3ccn(C)n3)c2)n1Cc1ccc(Cl)cc1 [Compound 621]	50 to 500
Cc1cc(C)[n+]([O-])c(C)c1NC(=O)N1CCC[C@@H]1c1nnc(C)n1Cc1ccc(Cl)cc1 [Compound 520]	< 50
O=C(N[C@H]1CCc2ccccc2C1)N1CCC[C@@H]1c1ncnn1Cc1ccc(Cl)cc1 [Compound 56]	< 50
Cc1noc(C)c1N/C(=C\[N+](=O)[O-])N1CCC[C@@H]1c1nnc(C)n1Cc1ccc(Cl)cc1 [Compound 611]	< 50
CC[C@H](NC(=O)N1CCC[C@@H]1c1nnc(C)n1Cc1ccc(Cl)cc1)c1c(C)cc(C(F)(F)F)cc1C [Compound 119]	< 50
Cc1nc(NC(=O)N2CCC[C@@H]2c2nnc(C)n2Cc2ccc(Cl)cc2)sc1C [Compound 596]	500 to 5000
Cc1nnc([C@H]2CCCN2C(=O)N[C@H](C)c2ccc(Cl)cc2)n1Cc1ccc(Cl)cc1 [Compound 180]	< 50
Cc1nnc([C@H]2CCCN2C(=O)Nc2cccc(Cl)c2)n1Cc1ccc(Cl)cc1 [Compound 163]	50 to 500
Cc1nnc([C@H]2CCCN2C(=O)NC(C)(C)c2ccc(C(F)(F)F)cc2)n1Cc1ccc(Cl)cc1 [Compound 220]	< 50
Cc1nnc([C@H]2CCCN2C(=O)N[C@H]2CCOc3c(F)ccc(F)c32)n1Cc1ccc(Cl)cc1 [Compound 161]	50 to 500
Cc1nnc([C@H]2C[C@@H](O)CN2C(=O)Nc2ccc(F)c(C(F)(F)F)c2)n1Cc1ccc(Cl)cc1 [Compound 449]	500 to 5000
Cc1nnc([C@H]2CCCN2C(=O)N[C@@H](C)c2cccnc2)n1Cc1ccc(Cl)cc1 [Compound 124]	< 50
Cc1nnc([C@H]2CCCN2C(=O)NC2CCCCC2)n1Cc1ccc(Cl)cc1 [Compound 185]	50 to 500
O=C(Nc1ccc(C(F)(F)F)cc1)N1CCC[C@@H]1c1ncncc1Cc1ccc(Cl)cc1 [Compound 23]	50 to 500
CNC(=O)c1cc(C)ccc1NC(=O)N1CCC[C@@H]1c1nnc(C)n1Cc1ccc(Cl)cc1 [Compound 279]	50 to 500
Cc1nnc([C@H]2CCCN2C(=O)NCc2ccc(Cl)cc2Cl)n1Cc1ccc(Cl)cc1 [Compound 202]	< 50
O=C(Nc1ccc(C(F)(F)F)cc1)N1CCC[C@@H]1c1oncc1Cc1ccc(Cl)cc1 [Compound 5]	50 to 500
Cc1nnc([C@H]2CCCN2C(=O)Nc2c(Cl)ncnc2Cl)n1Cc1ccc(Cl)cc1 [Compound 201]	< 50
Cc1nnc([C@H]2CCCN2C(=O)Nc2ccc(F)cc2Cl)n1Cc1ccc(Cl)cc1 [Compound 425]	< 50
Cc1nnc([C@H]2CCCN2C(=O)Nc2ccc3ccccc3c2)n1Cc1ccc(Cl)cc1 [Compound 135]	< 50
Cc1nnc([C@H]2CCCN2C(=O)Nc2ccc(Cl)c(C(F)(F)F)c2)n1Cc1ccc(Cl)cc1 [Compound 441]	50 to 500

SMILES	IC50 [nM]
Cc1onc(-c2ccccc2)c1NC(=O)N1CCC[C@@H]1c1nncn1Cc1ccc(Cl)cc1 [Compound 109]	< 50
CNCc1nnc([C@H]2CCCN2C(=O)N[C@H]2CCOc3cc(C(F)(F)F)ccc32)n1Cc1ccc(Cl)cc1 [Compound 413]	50 to 500
Cc1cnc([C@H]2CCCN2C(=O)Nc2ccc(Cl)cc2F)n1Cc1ccc(Cl)cc1 [Compound 567]	50 to 500
NCc1nnc([C@H]2CCCN2C(=O)N[C@H]2CCOc3cc(C(F)(F)F)ccc32)n1Cc1ccc(Cl)cc1 [Compound 414]	50 to 500
Cc1nc(Cl)nc(Cl)c1NC(=O)N1CCC[C@@H]1c1nnc(C)n1Cc1ccc(Cl)cc1 [Compound 188]	< 50
Cc1nnc([C@H]2C[C@@H](O)CN2C(=O)Nc2ccc(C(F)(F)F)cc2)n1Cc1ccc(Cl)cc1 [Compound 391]	500 to 5000
Cc1onc(-c2ccccc2F)c1NC(=O)N1CCC[C@@H]1c1nnc(C)n1Cc1ccc(Cl)cc1 [Compound 291]	< 50
Cc1nnc([C@H]2CCCN2C(=O)Nc2ccc(C(F)(F)F)nc2Cl)n1Cc1ccc(Cl)cc1 [Compound 524]	< 50
COC1C[C@H](c2nnc(C)n2Cc2ccc(Cl)cc2)N(C(=O)N[C@H]2CCOc3cc(C(F)(F)F)ccc32)C1 (some centres unmarked) [Compound 543]	50 to 500
Cc1cc(C(F)(F)F)cc(C)c1NC(=O)N1CCC[C@@H]1c1ncnn1Cc1ccc(Cl)cc1 [Compound 58]	< 50
COC(=O)c1ccc(F)c(NC(=O)N2CCC[C@@H]2c2nnc(C)n2Cc2ccc(Cl)cc2)c1 [Compound 284]	< 50
CC[C@H](NC(=O)N1CCC[C@@H]1c1nnc(C)n1Cc1ccc(Cl)cc1)c1ccc(C(F)(F)F)nc1 [Compound 467]	< 50
Cc1nnc([C@H]2CCCN2C(=O)Oc2ccc(Cl)cc2)n1Cc1ccc(Cl)cc1 [Compound 175]	500 to 5000
Cc1cc(C)c(NC(=O)N2CCC[C@@H]2c2nnc(C)n2Cc2ccc(Cl)cc2)c(C(N)=O)c1 [Compound 206]	< 50
Cc1nnc([C@H]2CCCN2C(=O)N[C@@H](C)C2CCCCC2)n1Cc1ccc(Cl)cc1 [Compound 184]	50 to 500
Cc1nc(C)c(NC(=O)N2CCC[C@@H]2c2nnc(C)n2Cc2ccc(Cl)cc2)c(C)n1 [Compound 326]	< 50
CC(=O)N1CCC[C@H](NC(=O)N2CCC[C@@H]2c2nnc(C)n2Cc2ccc(Cl)cc2)C1 [Compound 232]	50 to 500
Cc1nc(C(F)(F)F)ncc1NC(=O)N1CCC[C@@H]1c1nnc(C)n1Cc1ccc(Cl)cc1 [Compound 431]	< 50
Cc1cc(C(F)(F)F)cc(C)c1NC(=O)N1CCC[C@@H]1c1nnc(C)n1Cc1ccc(Cl)cc1 [Compound 102]	< 50
CNC(=O)c1ccc(C)c(N/C(=N/C#N)N2CCC[C@@H]2c2nnc(C)n2Cc2ccc(Cl)cc2)c1 [Compound 360]	50 to 500
CC[C@H](NC(=O)N1CCC[C@@H]1c1nnc(C)n1Cc1ccc(Cl)cc1)c1ccc(C(F)(F)F)nc1C [Compound 627]	< 50
CCc1nnc([C@H]2CCCN2C(=O)Nc2c(C)noc2C)n1Cc1ccc(Cl)cc1 [Compound 582]	50 to 500
Cc1cc(C)c(S(=O)(=O)N(C)C)cc1NC(=O)N1CCC[C@@H]1c1nnc(C)n1Cc1ccc(Br)cc1 [Compound 559]	< 50

SMILES	IC50 [nM]
Cc1noc(-c2ccccc2)c1NC(=O)N1CCC[C@@H]1c1nnc(C)n1Cc1ccc(Cl)cc1 [Compound 123]	< 50
Cc1nnc([C@H]2CCCN2C(=O)N[C@H]2CCc3ccc(C(F)(F)F)cc32)n1Cc1ccc(Cl)cc1 [Compound 171]	50 to 500
CC(=O)O[C@@H]1C[C@H](c2nnc(C)n2Cc2ccc(Cl)cc2)N(C(=O)Nc2ccc(C(F)(F)F)nc2Cl)C1 [Compound 496]	50 to 500
Cc1nnc([C@H]2CCCN2C(=O)Cc2ccc(F)c(C(F)(F)F)c2)n1Cc1ccc(Cl)cc1 [Compound 504]	50 to 500
Cc1nnc([C@H]2CCCN2C(=O)Nc2cc(C(=O)O)ccc2F)n1Cc1ccc(Cl)cc1 [Compound 282]	500 to 5000
Cc1nnc([C@H]2CCCN2C(=O)N[C@H](C)c2ccc(C(F)(F)F)nc2)n1Cc1ccc(Cl)cc1 [Compound 460]	< 50
Cc1nnc([C@H]2CCCN2C(=O)Nc2cc(C(N)=O)ccc2F)n1Cc1ccc(Cl)cc1 [Compound 294]	50 to 500
Cc1ncc(Cc2ccc(Cl)cc2)c([C@H]2CCCN2C(=O)Nc2ccc3c(c2)N(C)C(=O)CO3)n1 [Compound 27]	500 to 5000
CC[C@H](N/C(=C/[N+](=O)[O-])N1CCC[C@@H]1c1nnc(C)n1Cc1ccc(Cl)cc1)c1ccc(C(F)(F)F)nc1 [Compound 614]	< 50
Cc1nnc([C@H]2CCCN2C(=O)Nc2ccc(Cl)cc2C#N)n1Cc1ccc(Cl)cc1 [Compound 417]	< 50
Cc1ccc(C(=O)O)cc1NC(=O)N1CCC[C@@H]1c1nnc(C)n1Cc1ccc(Cl)cc1 [Compound 241]	50 to 500
Cc1nnc([C@H]2CCCN2C(=O)N[C@H]2CCOc3cc(C#N)ccc32)n1Cc1ccc(Cl)cc1 [Compound 207]	< 50
Cc1nnc([C@H]2CCCN2C(=O)NC2(c3ccccc3)CC2)n1[C@@H](C)c1ccc(Cl)cc1 [Compound 351]	50 to 500
O=C(NC1CCCOc2cc(Cl)ccc21)N1CCC[C@@H]1c1ncnn1Cc1ccc(Cl)cc1 (some centres unmarked) [Compound 88]	500 to 5000
Cc1onc(-c2ccc(Cl)cc2)c1NC(=O)N1CCC[C@@H]1c1nnc(C)n1Cc1ccc(Cl)cc1 [Compound 293]	< 50
Cc1c(Cl)nc([C@H]2CCCN2C(=O)Nc2ccc(Cl)cc2F)n1Cc1ccc(Cl)cc1 [Compound 457]	50 to 500
Cc1nnc([C@H]2CCCN2C(=O)Nc2ccc3[nH]ccc3c2)n1Cc1ccc(Cl)cc1 [Compound 603]	500 to 5000
Cc1nnc(C2C3CC3CN2C(=O)NC(c2ccccc2)c2ccccc2)n1Cc1ccc(Cl)cc1 (centres unmarked) [Compound 547]	50 to 500
CSc1ccc(NC(=O)N2CCC[C@@H]2c2ncnn2Cc2ccc(Cl)cc2)cc1 [Compound 67]	50 to 500
O=C(Nc1ccc2occc2c1)N1CCC[C@@H]1c1ncnn1Cc1ccc(Cl)cc1 [Compound 91]	50 to 500
Cc1nnc([C@H]2CCCN2C(=O)NC2CCCC2)n1Cc1ccc(Cl)cc1 [Compound 246]	500 to 5000
Cc1ncc(NC(=O)N2CCC[C@@H]2c2nnc(C)n2Cc2ccc(Cl)cc2)c(C)n1 [Compound 415]	< 50
